Measurements taken from PubChem BioAssay (NCI).
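Tested at 5 concentrations; 48 h exposure; 96-well plates; endpoints linearly interpolated, else capped at highest concentration. GI50 is the concentration that inhibits growth by half. TGI: concentration producing complete growth inhibition.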

How the values were obtained:
Experiment in all cases: inhibition of tumour cell growth, NCI panel, 48 h
ACHN renal = tested on: ACHN renal
BT-549 breast = tested on: BT-549 breast
DU-145 prostate = tested on: DU-145 prostate
MDA-MB-435 = tested on: MDA-MB-435
NCI-H226 lung = tested on: NCI-H226 lung
SK-OV-3 ovarian = tested on: SK-OV-3 ovarian
HCC-2998 colon = tested on: HCC-2998 colon
MCF7 breast = tested on: MCF7 breast
OVCAR-3 ovarian = tested on: OVCAR-3 ovarian

## N#Cc1c(-c2ccccc2)/c(=C\O)c(=O)n2c1nc1ccccc12
ACHN renal
  TGI: > 100 µM
BT-549 breast
  TGI: > 100 µM
DU-145 prostate
  TGI: > 100 µM
MDA-MB-435
  TGI: > 100 µM
NCI-H226 lung
  TGI: > 100 µM
SK-OV-3 ovarian
  TGI: > 100 µM

## c1ccc(N=C2SC(=NNc3ccccc3)SC2=Nc2ccccc2)cc1
ACHN renal
  TGI: > 100 µM
DU-145 prostate
  TGI: > 100 µM
HCC-2998 colon
  TGI: > 100 µM
MDA-MB-435
  TGI: > 100 µM
NCI-H226 lung
  TGI: > 100 µM
SK-OV-3 ovarian
  TGI: > 100 µM

## Cc1nc2c(o1)C(=O)c1ccccc1/C2=N/c1ccccn1
ACHN renal
  TGI: 39.8 µM
BT-549 breast
  TGI: 32.2 µM
HCC-2998 colon
  TGI: > 100 µM
MCF7 breast
  TGI: 33.9 µM
MDA-MB-435
  TGI: 31.9 µM
OVCAR-3 ovarian
  TGI: 49.3 µM
SK-OV-3 ovarian
  TGI: > 100 µM

## COc1cccc2cc(C(N)=O)c(=N)oc12
ACHN renal
  TGI: > 100 µM
BT-549 breast
  TGI: > 100 µM
DU-145 prostate
  TGI: > 100 µM
HCC-2998 colon
  TGI: > 100 µM
MDA-MB-435
  TGI: > 100 µM
NCI-H226 lung
  TGI: > 100 µM
OVCAR-3 ovarian
  TGI: > 100 µM
SK-OV-3 ovarian
  TGI: > 100 µM

## COc1cc(OC)c2c(c1OC)OCC(Cc1ccc(O)cc1)C2=O (centres undefined)
ACHN renal
  TGI: > 25 µM
DU-145 prostate
  TGI: > 25 µM
MDA-MB-435
  TGI: > 25 µM
NCI-H226 lung
  TGI: > 25 µM
OVCAR-3 ovarian
  TGI: > 25 µM
SK-OV-3 ovarian
  TGI: > 25 µM

## CC(=O)C1=C(N=[N+]=[N-])c2cccc3cccc(c23)C1=O
ACHN renal
  TGI: 32.4 µM
BT-549 breast
  TGI: 46.2 µM
HCC-2998 colon
  TGI: 32 µM
MCF7 breast
  TGI: 64.6 µM
MDA-MB-435
  TGI: 48.5 µM
NCI-H226 lung
  TGI: 64.2 µM
OVCAR-3 ovarian
  TGI: 24.6 µM
SK-OV-3 ovarian
  TGI: 82.3 µM

## NNC(=O)CNC(=O)CSc1nnc(COc2ccc(Cl)cc2)n1-c1ccccc1
ACHN renal
  TGI: > 100 µM
DU-145 prostate
  TGI: > 100 µM
HCC-2998 colon
  TGI: > 100 µM
MCF7 breast
  TGI: > 100 µM
MDA-MB-435
  TGI: > 100 µM
NCI-H226 lung
  TGI: > 100 µM
OVCAR-3 ovarian
  TGI: > 100 µM
SK-OV-3 ovarian
  TGI: > 100 µM

## Cc1ccc2c(c1)NC(=O)CCSSCCC(=O)N2
ACHN renal
  TGI: > 100 µM
BT-549 breast
  TGI: > 100 µM
DU-145 prostate
  TGI: > 100 µM
MDA-MB-435
  TGI: > 100 µM
NCI-H226 lung
  TGI: > 100 µM
OVCAR-3 ovarian
  TGI: > 100 µM
SK-OV-3 ovarian
  TGI: > 100 µM

## COP(C)(=O)/C(Cc1ccccc1)=N\O (centres undefined)
ACHN renal
  TGI: > 100 µM
DU-145 prostate
  TGI: > 100 µM
HCC-2998 colon
  TGI: > 100 µM
MCF7 breast
  TGI: > 100 µM
MDA-MB-435
  TGI: > 100 µM
NCI-H226 lung
  TGI: > 100 µM
OVCAR-3 ovarian
  TGI: > 100 µM
SK-OV-3 ovarian
  TGI: > 100 µM

## CC(=O)O[C@H]1CC[C@]2(C)[C@H]3CC[C@@H]4[C@H]5[C@H](C(C)C)CC[C@]5(C(=O)OCC(CO)(CO)N=C(N)N)CC[C@@]4(C)[C@]3(C)CC[C@H]2C1(C)C
ACHN renal
  GI50: 1.8 µM
  TGI: 3.26 µM
DU-145 prostate
  GI50: 1.7 µM
  TGI: 3.2 µM
MDA-MB-435
  GI50: 1.64 µM
  TGI: 3.11 µM
OVCAR-3 ovarian
  GI50: 1.67 µM
  TGI: 3.2 µM
SK-OV-3 ovarian
  GI50: 2 µM
  TGI: 3.96 µM

## CC(=O)[O-].CC(=O)[O-].O=C(N/N=C/c1cc(Cl)cc(Cl)c1[OH2+])c1ccncc1.[Co+2]
ACHN renal
  TGI: > 100 µM
HCC-2998 colon
  TGI: > 100 µM
NCI-H226 lung
  TGI: > 100 µM
OVCAR-3 ovarian
  TGI: > 100 µM
SK-OV-3 ovarian
  TGI: > 100 µM
